From US20120270929A1, “MODULATION OF TTC39 EXPRESSION TO INCREASE HDL” (ISIS Pharmaceuticals, Inc., priority 2009, published 2012)

Legend:
Assay type in all cases: in vivo, mouse
[1] = system: Mevalonate (diphospho) decarboxylase (Mvd) mRNA; experiment: PCR microarray analysis of liver, LDLr-/- mice: Mvd; settings: 50 mg/kg, 6 weeks
Protocol: (§1) Four groups of five male mice each were injected with a total of 1.5, 5, 15, or 50 mg/kg/week of ISIS 447118 for 6 weeks. A group of five mice was injected with a total of 50 mg/kg/week of control oligonucleotide ISIS 141923 ([…], designated herein as SEQ ID NO: 112, which has no known murine target) for 6 weeks. A control group of five mice was injected with phosphate buffered saline (PBS) twice a week for 6 weeks. Plasma samples were obtained before the start of treatment, at week 3 and at week 6. At the end of the treatment period, the mice were euthanized. Plasma and tissue samples were obtained for further analysis.
(§2) Liver samples from the mice groups were analyzed using a commercial kit for PCR microarray analysis (SA Biosciences Corp., MD), according to the manufacturer's instructions. Genes involved in lipoprotein and cholesterol metabolism were compared with the PBS control.

[2] = system: Insulin induced gene 1 (Insig1) mRNA; experiment: PCR microarray analysis of liver, LDLr-/- mice: Insig1; settings: 50 mg/kg, 6 weeks
Protocol: as §1, §2

[3] = Plasma cholesterol and triglycerides in LDLr-/- mice; settings: 50 mg/kg/week
Protocol: The LDLr knockout mice model is a model for familial hypercholesterolemia developed by Ishibashi et al (J Clin Invest 1993; 92: 883-893). On a normal chow diet, the mice have an average total cholesterol of 250 mg/dL due to increases in LDL and VLDL cholesterol. This model is therefore highly susceptible to atherosclerosis (Ishibashi et al Proc Natl Acad Sci USA 1994; 91: 4431-4435).
as §1
To investigate the effect of inhibition of TTC39B on triglycerides and cholesterol levels in the plasma, samples were collected on weeks 0, 3, and 6, and total plasma cholesterol, LDL cholesterol, HDL cholesterol, and triglycerides were analyzed on an Olympus AU400e Analyzer.

[4] = system: Apolipoprotein A-IV (ApoA4) mRNA; experiment: PCR microarray analysis of liver, LDLr-/- mice: ApoA4; settings: 50 mg/kg, 6 weeks
Protocol: as §1, §2

[5] = system: Low density lipoprotein receptor (Ldlr) mRNA; experiment: PCR microarray analysis of liver, LDLr-/- mice: Ldlr; settings: 50 mg/kg, 6 weeks
Protocol: as §1, §2

[6] = system: Stabilin 1 (Stab1) mRNA; experiment: PCR microarray analysis of liver, LDLr-/- mice: Stab1; settings: 50 mg/kg, 6 weeks
Protocol: as §1, §2

[7] = system: Farnesyl diphosphate synthetase (Fdps) mRNA; experiment: PCR microarray analysis of liver, LDLr-/- mice: Fdps; settings: 50 mg/kg, 6 weeks
Protocol: as §1, §2

[8] = system: Oxysterol binding protein-like 5 (Osbpl5) mRNA; experiment: PCR microarray analysis of liver, LDLr-/- mice: Osbpl5; settings: 50 mg/kg, 6 weeks
Protocol: as §1, §2

[9] = system: Sterol O-acyltransferase 2 (Soat2) mRNA; experiment: PCR microarray analysis of liver, LDLr-/- mice: Soat2; settings: 50 mg/kg, 6 weeks
Protocol: as §1, §2

[10] = system: Proprotein convertase subtilisin/kexin type 9 (Pcsk9) mRNA; experiment: PCR microarray analysis of liver, LDLr-/- mice: Pcsk9; settings: 50 mg/kg, 6 weeks
Protocol: as §1, §2

CCTTCCCTGAAGGTTCCTCC (chemistry not given here) [ISIS 141923, reference compound]
Mvd fold increase/decrease relative to PBS group [1]: 1.25 fold
Insig1 fold increase/decrease relative to PBS group [2]: 1.13 fold
HDL cholesterol % increase on week 6 (% change over baseline) [3]: 43%
HDL cholesterol levels ([3]; Week 0 (before treatment)): 76 mg/dL
LDL cholesterol levels ([3]; Week 0 (before treatment)): 100 mg/dL
total cholesterol levels ([3]; Week 0 (before treatment)): 206 mg/dL
triglyceride levels ([3]; Week 0 (before treatment)): 97 mg/dL
HDL cholesterol levels ([3]; Week 3): 78 mg/dL
LDL cholesterol levels ([3]; Week 3): 100 mg/dL
total cholesterol levels ([3]; Week 3): 204 mg/dL
triglyceride levels ([3]; Week 3): 116 mg/dL
HDL cholesterol levels ([3]; Week 6): 108 mg/dL
LDL cholesterol levels ([3]; Week 6): 112 mg/dL
total cholesterol levels ([3]; Week 6): 227 mg/dL
triglyceride levels ([3]; Week 6): 143 mg/dL
ApoA4 fold increase/decrease relative to PBS group [4]: 0.87 fold
Ldlr fold increase/decrease relative to PBS group [5]: 1.36 fold
Stab1 fold increase/decrease relative to PBS group [6]: 1.12 fold
Fdps fold increase/decrease relative to PBS group [7]: 1.21 fold
Osbpl5 fold increase/decrease relative to PBS group [8]: 1.21 fold
Soat2 fold increase/decrease relative to PBS group [9]: 0.95 fold
Pcsk9 fold increase/decrease relative to PBS group [10]: 1.09 fold
